{"source": "PubChem BioAssay (NCI)", "note": "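These data come from cells grown in 96-well plates and exposed to compound for 48 hours at five concentrations. Here, GI50 denotes the concentration required for 50% inhibition of growth. TGI is the concentration that stops growth completely.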"}
{"tested_on": "HOP-62 NSCLC", "assay": "NCI-60 cell line screen, 48 h", "units": {"GI50": "µM", "TGI": "µM"}}
{"smiles": "C#C[C@]1(O)CCC2C3CCc4cc(O)ccc4C3CC[C@@]21C", "note": "(stereo partly drawn)", "GI50": 4.34, "TGI": 16.6}
{"tested_on": "HOP-92 NSCLC", "assay": "NCI-60 cell line screen, 48 h", "units": {"GI50": "µM", "TGI": "µM"}}
{"smiles": "Nc1c(C(=O)Nc2ccncc2)sc2nc3c(cc12)CCCCCCCC3", "GI50": 0.761, "TGI": 1.49}
{"smiles": "Cc1ncc(C(=O)Nc2ccc(CN3CCN(C)CC3)c(C(F)(F)F)c2)cc1C#Cc1cnc(N)c2ccncc12", "GI50": 0.615, "TGI": 3.62}
{"smiles": "C#C[C@]1(O)CCC2C3CCc4cc(O)ccc4C3CC[C@@]21C", "note": "(stereo partly drawn)", "GI50": 5.91, "TGI": 19.9}
{"tested_on": "HS 578T breast", "assay": "NCI-60 cell line screen, 48 h", "units": {"TGI": "µM", "GI50": "µM"}}
{"smiles": "CN1C2CCC1CC(=CCOC(c1ccc(F)cc1)c1ccc(F)cc1)C2", "TGI": 27.5}
{"smiles": "Nc1c(C(=O)Nc2ccncc2)sc2nc3c(cc12)CCCCCCCC3", "GI50": 1.08, "TGI": 2.54}
{"smiles": "Cc1ncc(C(=O)Nc2ccc(CN3CCN(C)CC3)c(C(F)(F)F)c2)cc1C#Cc1cnc(N)c2ccncc12", "GI50": 0.984, "TGI": 4.65}
{"smiles": "C#C[C@]1(O)CCC2C3CCc4cc(O)ccc4C3CC[C@@]21C", "note": "(stereo partly drawn)", "GI50": 3.08, "TGI": 17.7}
{"tested_on": "HT29 colon", "assay": "NCI-60 cell line screen, 48 h", "units": {"TGI": "µM", "GI50": "µM"}}
{"smiles": "CN1C2CCC1CC(=CCOC(c1ccc(F)cc1)c1ccc(F)cc1)C2", "TGI": 19.9}
{"smiles": "Nc1c(C(=O)Nc2ccncc2)sc2nc3c(cc12)CCCCCCCC3", "GI50": 0.969, "TGI": 1.79}
{"smiles": "Cc1ncc(C(=O)Nc2ccc(CN3CCN(C)CC3)c(C(F)(F)F)c2)cc1C#Cc1cnc(N)c2ccncc12", "GI50": 0.432, "TGI": 2.26}
{"smiles": "C#C[C@]1(O)CCC2C3CCc4cc(O)ccc4C3CC[C@@]21C", "note": "(stereo partly drawn)", "GI50": 3.65, "TGI": 18.6}
{"tested_on": "IGROV1 ovarian", "assay": "NCI-60 cell line screen, 48 h", "units": {"TGI": "µM", "GI50": "µM"}}
{"smiles": "CN1C2CCC1CC(=CCOC(c1ccc(F)cc1)c1ccc(F)cc1)C2", "TGI": 30.1}
{"smiles": "Nc1c(C(=O)Nc2ccncc2)sc2nc3c(cc12)CCCCCCCC3", "GI50": 0.933, "TGI": 1.82}
{"smiles": "Cc1ncc(C(=O)Nc2ccc(CN3CCN(C)CC3)c(C(F)(F)F)c2)cc1C#Cc1cnc(N)c2ccncc12", "GI50": 0.152, "TGI": 1.42}
{"smiles": "C#C[C@]1(O)CCC2C3CCc4cc(O)ccc4C3CC[C@@]21C", "note": "(stereo partly drawn)", "GI50": 11.2, "TGI": 52.4}
{"tested_on": "K-562 leukemia", "assay": "NCI-60 cell line screen, 48 h", "units": {"TGI": "µM"}}
{"smiles": "CN1C2CCC1CC(=CCOC(c1ccc(F)cc1)c1ccc(F)cc1)C2", "TGI": 28}
{"smiles": "Cc1ncc(C(=O)Nc2ccc(CN3CCN(C)CC3)c(C(F)(F)F)c2)cc1C#Cc1cnc(N)c2ccncc12", "TGI": 4.48}
{"tested_on": "KM12 colon", "assay": "NCI-60 cell line screen, 48 h", "units": {"TGI": "µM", "GI50": "µM"}}
{"smiles": "CN1C2CCC1CC(=CCOC(c1ccc(F)cc1)c1ccc(F)cc1)C2", "TGI": 29.6}
{"smiles": "Nc1c(C(=O)Nc2ccncc2)sc2nc3c(cc12)CCCCCCCC3", "GI50": 0.877, "TGI": 1.62}
{"smiles": "Cc1ncc(C(=O)Nc2ccc(CN3CCN(C)CC3)c(C(F)(F)F)c2)cc1C#Cc1cnc(N)c2ccncc12", "GI50": 0.441, "TGI": 1.82}
{"smiles": "C#C[C@]1(O)CCC2C3CCc4cc(O)ccc4C3CC[C@@]21C", "note": "(stereo partly drawn)", "GI50": 3.14, "TGI": 13.9}
{"tested_on": "LOX IMVI melanoma", "assay": "NCI-60 cell line screen, 48 h", "units": {"TGI": "µM", "GI50": "µM"}}
{"smiles": "CN1C2CCC1CC(=CCOC(c1ccc(F)cc1)c1ccc(F)cc1)C2", "TGI": 31.5}
{"smiles": "Nc1c(C(=O)Nc2ccncc2)sc2nc3c(cc12)CCCCCCCC3", "GI50": 0.845, "TGI": 1.56}
{"smiles": "Cc1ncc(C(=O)Nc2ccc(CN3CCN(C)CC3)c(C(F)(F)F)c2)cc1C#Cc1cnc(N)c2ccncc12", "GI50": 0.337, "TGI": 1.4}
{"smiles": "C#C[C@]1(O)CCC2C3CCc4cc(O)ccc4C3CC[C@@]21C", "note": "(stereo partly drawn)", "GI50": 5.27, "TGI": 18.8}
{"tested_on": "M14 melanoma", "assay": "NCI-60 cell line screen, 48 h", "units": {"TGI": "µM", "GI50": "µM"}}
{"smiles": "CN1C2CCC1CC(=CCOC(c1ccc(F)cc1)c1ccc(F)cc1)C2", "TGI": 31.9}
{"smiles": "Nc1c(C(=O)Nc2ccncc2)sc2nc3c(cc12)CCCCCCCC3", "GI50": 0.93, "TGI": 1.75}
